Assay results as given in patent US10265299B2, “Composition for promoting hair growth and/or hair restoration containing psoralidin” (Amorepacific Corporation, priority 2015, dated 2019).

Assays:
protein kinase Akt = settings: cited from earlier work
[1] = test system: CRH (Corticotropin-releasing hormone) and corticosterone; settings: fed to animals; cited from earlier work
NIH3T3 (WNT) cells = assay: Measurement of hair follicle stem cell activity (WNT/β-catenin luciferase assay); type: cell-based; settings: psoralidin 0, 0.01, 0.1, 1, 10 μM for 24 hours; ONE-Glo reagent
Procedure: NIH3T3 (WNT) cells, which are hair follicle stem cells, were seeded in a 96 well plates (Nunc, Wiesbaden, Germany) at a density of 10000 cells/well and cultured for 24 hours (5% CO2, 37° C.). Then, psoralidin was treated at varying concentrations (0, 0.01, 0.1, 1, 10 μM) for 24 hours. 100 μl of ONE-Glo reagent (Promega, Madison, Wis., USA) was added to each well of the 96-well plate and reacted for 3 minutes . After the reaction, the activity of stem eel Is was measured with a luminometer Victor (PerkinElmer, Waltham, Mass., USA).

hair follicle = assay: Culture of hair follicle organ and observation of hair follicle cycle; type: cell-based; settings: psoralidin 1, 10 μM vs samples without psoralidin treatment; human hair follicle organ culture
Procedure: For the experiment, a hair transplant was performed to a person with a symptom of partial hair loss. Hair follicle samples of 4 groups each having 15 hair follicles were prepared with remaining follicle samples. William's E medium (Gibco, NY, USA) ) including 500 μl culture medium (2 mM L-glutamine (PAA, Coelbe, Germany), 10 μg/ml insulin, 10 ng/ml hydrocortisone (Sigma, St Louis, Mo.), 0.1% Fungizone (Gibco, NY, USA), 10 μg/ml streptomycin, and 100 U/ml penicillin (Gibco, NY, USA) was dispensed into a 24 well plate (Nunc, Wiesbaden, Germany). Then, the cells were cultured at a density of 5 to 6 cells per well on 500 ul of William's E medium (Gibco, NY, USA).
The cultured cell samples were treated with psoralidin at varying concentrations (0, 1, 10 μM). A sample not treated with psoralidin was used as a control and the medium was changed every 2 to 3 days. After the treatment with psoralidin, the hair follicle was photographed using a stereomicroscope (Dongwon CNS, Korea), and the life cycle of Image hair follicle was classified and schematized.

[2] = test system: androgen-independent prostate cancer cells; settings: in vitro and in vivo; cited from earlier work

Question: What does the source list for `CC(C)=CCc1cc2c(cc1O)oc(=O)c1c3ccc(O)cc3oc21` [psoralidin]?
Answer: phosphorylation of protein kinase Akt (protein kinase Akt): inhibits the phosphorylation of protein kinase Akt; levels of stress hormones CRH and corticosterone [1]: lower the levels of hormones of CRH (Corticotropin-releasing hormone) and corticosterone; activity of hair follicle stem cells (luminescence, WNT/β-catenin luciferase) (NIH3T3 (WNT) cells): activated; speed of the progression to the catagen stage (hair follicle): significantly delayed; time remaining in the anagen stage of the hair follicle cycle (hair follicle): remained longer in the anagen stage; growth of androgen-independent prostate cancer cells [2]: inhibiting the growth of androgen-independent prostate cancer cells both in vitro and in vivo
